{"source": "patent US12545637B2", "about": "“Extrahepatic targeted cationic lipid compound with high efficiency and low toxicity and its composition” (BEIJING YOUCARE KECHUANG PHARMACEUTICAL TECHNOLOGY CO., LTD., priority 2023, dated 2026)", "key": {"[1]": {"system": "female BALB/C mice", "test": "Distribution of liposomes in mice (protein expression in liver, spleen, lung, heart and kidney)", "type": "in vivo", "conditions": "mouse, in vivo", "protocol": "The LNP formulation (prepared according to Example 4) containing […] Fluc-mRNA was injected intramuscularly into female BALB/C mice aged 4-6 weeks and weighed 17-19 g, and the mice were intraperitoneally injected with fluorescent imaging substrate at specific time points after administration (6h, 24 h, 48h and 7d), where the mice were allowed to free move for 5 minutes, and then the average radiation intensity (corresponding to fluorescence expression intensity) of the protein expression of the mRNA carried by the LNP in the mice was detected by the IVIS Spectrum small animal in vivo imaging system.\nCurrent mRNA vaccines usually express proteins in muscle."}, "[2]": {"test": "Detection of encapsulation efficiency, drug loading concentration and total RNA concentration (RiboGreen)", "type": "physicochemical", "in_short": "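Samples were diluted in 1×TE to about […], combined with TE and 0.1% Triton X-100 buffers, and held at 37 °C for 10 minutes before dye addition.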"}, "[3]": {"system": "female BALB/C mice", "test": "In vivo imaging in mice of Fluc-mRNA LNP formulations (mRNA expression and duration)", "in_short": "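Female BALB/C mice (4-6 weeks, 17-19 g) received LNP carrying […] Fluc-mRNA intramuscularly. At 6h, 24 h, 48h and 7d, fluorescent imaging substrate was given intraperitoneally and after 5 minutes average radiance, as a measure of expressed protein, was imaged on an IVIS Spectrum system.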"}, "[4]": {"conditions": "LNP formulation prepared from the cationic lipid"}}, "note": "Several values for one entry are separate records, joined by “and”; a condition that tells them apart may be missing. Equal values may be shown once."}
{"smiles": "CCCCCCCCCCCOC(=O)CCCN(CCO)CCN(CCO)CCCCCC(=O)OC(CCCCCCCC)CCCCCCCC", "note": "[YK-407]", "values": [{"measurement": "protein expression in the liver", "setting": "[1]", "value": "had no protein expression in the liver"}, {"measurement": "protein expression in the spleen", "setting": "[1]", "value": "had protein expression in the spleen"}, {"measurement": "Drug loading concentration", "setting": "[2]; [4]", "value": 35.67, "unit": "µg/mL"}, {"measurement": "Encapsulation efficiency", "setting": "[2]; [4]", "value": 85.2, "unit": "%"}, {"measurement": "Total RNA concentration", "setting": "[2]; [4]", "value": 40.77, "unit": "µg/mL"}, {"measurement": "encapsulation efficiency higher than ALC-0315", "setting": "[2]; difference vs ALC-0315", "value": 21.9, "unit": "%"}, {"measurement": "encapsulation efficiency higher than HIMA", "setting": "[2]; difference vs HIMA (HHMA)", "value": 25.0, "unit": "%"}, {"measurement": "encapsulation efficiency higher than SM-102", "setting": "[2]; difference vs SM-102", "value": 22.3, "unit": "%"}, {"measurement": "encapsulation efficiency higher than YK-009", "setting": "[2]; difference vs YK-009", "value": 21.8, "unit": "%"}, {"measurement": "encapsulation efficiency higher than compound 21", "setting": "[2]; difference vs compound 21", "value": 27.2, "unit": "%"}, {"measurement": "encapsulation efficiency higher than compound 23", "setting": "[2]; difference vs compound 23", "value": 29.0, "unit": "%"}, {"measurement": "drug loading concentration, times that of ALC-0315", "setting": "[2]; ratio vs ALC-0315", "value": 1.33}, {"measurement": "total RNA concentration, times that of ALC-0315", "setting": "[2]; ratio vs ALC-0315", "value": 1.08}, {"measurement": "drug loading concentration, times that of HIMA", "setting": "[2]; ratio vs HIMA (HHMA)", "value": 1.09}, {"measurement": "total RNA concentration, times that of HIMA", "setting": "[2]; ratio vs HIMA (HHMA)", "value": 1.12}, {"measurement": "drug loading concentration, times that of SM-102", "setting": "[2]; ratio vs SM-102", "value": 1.34}, {"measurement": "total RNA concentration, times that of SM-102", "setting": "[2]; ratio vs SM-102", "value": 1.13}, {"measurement": "drug loading concentration, times that of YK-009", "setting": "[2]; ratio vs YK-009", "value": 1.30}, {"measurement": "total RNA concentration, times that of YK-009", "setting": "[2]; ratio vs YK-009", "value": 1.06}, {"measurement": "drug loading concentration, times that of compound 21", "setting": "[2]; ratio vs compound 21", "value": 1.62}, {"measurement": "total RNA concentration, times that of compound 21", "setting": "[2]; ratio vs compound 21", "value": 1.41}, {"measurement": "drug loading concentration, times that of compound 23", "setting": "[2]; ratio vs compound 23", "value": 1.78}, {"measurement": "total RNA concentration, times that of compound 23", "setting": "[2]; ratio vs compound 23", "value": 1.31}, {"measurement": "average radiation intensity, times that of ALC-0315", "setting": "[3]; 6 h", "value": 4.76}, {"measurement": "average radiation intensity, times that of HHMA", "setting": "[3]; 6 h", "value": 6.05}, {"measurement": "average radiation intensity, times that of SM-102", "setting": "[3]; 6 h", "value": 5.79}, {"measurement": "average radiation intensity, times that of compound 21", "setting": "[3]; 6 h", "value": 6.66}, {"measurement": "average radiation intensity, times that of compound 23", "setting": "[3]; 6 h", "value": 6.88}, {"measurement": "expression amount in mice, times that of YK-415", "setting": "[3]; 6 h", "value": 33.96}, {"measurement": "expression amount in mice, times that of YK-417", "setting": "[3]; 6 h", "value": 66.16}, {"measurement": "average radiation intensity, times that of ALC-0315", "setting": "[3]; 24 h", "value": 10.62}, {"measurement": "average radiation intensity, times that of HHMA", "setting": "[3]; 24 h", "value": 16.80}, {"measurement": "average radiation intensity, times that of SM-102", "setting": "[3]; 24 h", "value": 16.34}, {"measurement": "average radiation intensity, times that of compound 21", "setting": "[3]; 24 h", "value": 18.15}, {"measurement": "average radiation intensity, times that of compound 23", "setting": "[3]; 24 h", "value": 19.97}, {"measurement": "expression amount in mice, times that of YK-415", "setting": "[3]; 24 h", "value": 31.25}, {"measurement": "expression amount in mice, times that of YK-417", "setting": "[3]; 24 h", "value": 100.86}, {"measurement": "mRNA expression in mice, times that of YK-411", "setting": "[3]; 24 h", "value": "996.97 and 1000"}, {"measurement": "average radiation intensity, times that of ALC-0315", "setting": "[3]; 48 h", "value": "22 and 22.06"}, {"measurement": "average radiation intensity, times that of HHMA", "setting": "[3]; 48 h", "value": "27 and 26.55"}, {"measurement": "average radiation intensity, times that of SM-102", "setting": "[3]; 48 h", "value": "27 and 26.93"}, {"measurement": "average radiation intensity, times that of compound 21", "setting": "[3]; 48 h", "value": "28 and 28.07"}, {"measurement": "average radiation intensity, times that of compound 23", "setting": "[3]; 48 h", "value": "27 and 26.89"}, {"measurement": "expression amount in mice, times that of YK-415", "setting": "[3]; 48 h", "value": 56.07}, {"measurement": "expression amount in mice, times that of YK-417", "setting": "[3]; 48 h", "value": "125.66 and 120"}, {"measurement": "mRNA expression in mice, times that of YK-411", "setting": "[3]; 48 h", "value": 907.99}, {"measurement": "average radiation intensity, times that of ALC-0315", "setting": "[3]; 7 d", "value": 6.90}, {"measurement": "average radiation intensity, times that of HHMA", "setting": "[3]; 7 d", "value": 8.13}, {"measurement": "average radiation intensity, times that of SM-102", "setting": "[3]; 7 d", "value": 7.20}, {"measurement": "average radiation intensity, times that of compound 21", "setting": "[3]; 7 d", "value": 7.59}, {"measurement": "average radiation intensity, times that of compound 23", "setting": "[3]; 7 d", "value": 7.93}, {"measurement": "expression amount in mice, times that of YK-415", "setting": "[3]; 7 d", "value": 11.98}, {"measurement": "expression amount in mice, times that of YK-417", "setting": "[3]; 7 d", "value": "21.20 and 20"}, {"measurement": "mRNA expression in mice, times that of YK-411", "setting": "[3]; 7 d", "value": "100.85 and 100"}, {"measurement": "average radiation intensity, 6 h", "setting": "[3]; Fluc-mRNA LNP intramuscular, 6 h after administration", "value": 4001500}, {"measurement": "average radiation intensity, 24 h", "setting": "[3]; Fluc-mRNA LNP intramuscular, 24 h after administration", "value": 2015870}, {"measurement": "average radiation intensity, 48 h", "setting": "[3]; Fluc-mRNA LNP intramuscular, 48 h after administration", "value": 885288}, {"measurement": "average radiation intensity, 7 d", "setting": "[3]; Fluc-mRNA LNP intramuscular, 7 d after administration", "value": 48410}]}
